Activity calls are given as the source filed them. No cut-off for these calls is given here.
Columns and labels:
[1] = Antioxidant activity assessed as DPPH radical scavenging activity measured every minute over 45 mins by spectrophotometry; format: physicochemical
[2] = Antioxidant activity assessed as ABTS radical scavenging activity by spectrophotometry; format: physicochemical
[3] = system: SH-SY5Y; assay: Cytotoxicity against human SH-SY5Y cells at 1 and 10 uM after 24 hrs by MTT assay; format: cell-based
[4] = system: SH-SY5Y; assay: Neuroprotective activity in human SH-SY5Y cells assessed as inhibition of 6-OH-DA-induced cytotoxicity at 1 uM compound incubated for 1 hr followed by 24 hrs incubation with 100 uM 6-OH-DA by MTT assay; format: functional, cell-based
[5] = system: SH-SY5Y; assay: Neuroprotective activity in human SH-SY5Y cells assessed as inhibition of 6-OH-DA-induced cytotoxicity at 10 uM compound incubated for 1 hr followed by 24 hrs incubation with 100 uM 6-OH-DA by MTT assay; format: functional, cell-based
[6] = Antioxidant activity assessed as galvinoxyl radical scavenging activity measured over 30 mins by spectrophotometry; format: physicochemical
[7] = Iron chelation activity of compound assessed as [Fe(ferrozine)3]2+ complex formation by spectrophotometry; format: physicochemical

Row | Compound | IC50 [1] | IC50 [2] | Activity [3] | inhibition [4] | inhibition [5] | IC50 [6] | Activity [7]
1 | COc1ccc(/C=C/C=C/C(=O)O)cc1OC | > 75 µM | > 50 µM | Non-toxic | inactive | inactive |  | 
2 | COc1cc(/C=C/C=C/C(=O)O)ccc1O | 42.5 µM | 19.7 µM | Non-toxic |  | Active | 4.8 µM | 
3 | Cc1c(C)c2c(c(C)c1O)CCC(C)(C(=O)O)O2 (racemic) [TROLOX] | 30.8 µM | 2.8 µM |  |  |  | 3.4 µM | 
4 | O=C(O)/C=C/c1ccc(O)c(O)c1 [CAFFEIC ACID] | 21.7 µM | 17.5 µM |  |  |  | 27 µM | Active
5 | O=C(O)/C=C/C=C/c1ccc(O)c(O)c1 [DEMETHYLENATED PIPERIC ACID] | 18.2 µM | 11.1 µM | Non-toxic | Active | Active | 2.5 µM | Active
6 | COc1cc(/C=C/C(=O)O)ccc1O [FERULATE] | 49.3 µM | 23.9 µM |  |  |  | 26.5 µM | 
